Laboratory results as given in patent US10668018B2, “Pharmaceutical compositions” (MEXICHEM AMANCO HOLDINGS S.A. DE C.V., priority 2011, dated 2020).

Tests used:
[1] = Amount of ethanol required to dissolve the drug in propellant/ethanol mixture (visual, first clear solution); type: physicochemical; conditions: for ethanol required to dissolve the drug: 20° C., drug amount equivalent to MDI dose of 50 μg (FP) or 250 μg (BDP); for Ethanol Content in R-134a / Ethanol Content in R-152a: amount required to dissolve the drug completely, BDP 250 μg, FP 50 μg dose
Method: A series of glass vials were charged with 0.00869 g (8.69 mg) of fluticasone propionate. R-152a propellant was then added to each vial, the amount being decreased from one vial to the next to compensate for increasing amounts of ethanol. An amount of ethanol was then added to each vial, with the amount being increased in increments from one vial to the next, in order to determine the minimum amount of ethanol required to dissolve the fluticasone propionate in the R-152a/ethanol mixture. […] The amount of ethanol in the R-152a/ethanol mixture was increased from 1% by weight on the total weight of the R-152a/ethanol mixture in 1% w/w increments. After adding the ethanol, each vial was sonicated in an effort to dissolve the drug, stored at 20° C. and then examined visually to determine whether the drug had in fact dissolved. […] It was determined that 5.0% w/w of ethanol was required to dissolve the fluticasone propionate. […] R-152a propellant was then added to each vial, the amount being decreased from one vial to the next to compensate for increasing amounts of ethanol. […] The amount of ethanol in the R-152a/ethanol mixture was increased from 1% by weight on the total weight of the R-152a/ethanol mixture in 1% w/w increments. After adding the ethanol, each vial was sonicated in an effort to dissolve the drug, stored at 20° C. and then examined visually to determine whether the drug had in fact dissolved. […] Exactly the same procedure as described in Example 3 above was used except that R-134a was used as the propellant. It was determined that 13.0% w/w of ethanol (% by weight on the total weight of the R-134a/ethanol mixture) was required to dissolve the fluticasone propionate. […] Exactly the same procedure as described in Example 4 above was used except that R-134a was used as the propellant. […] The drug was weighed directly into standard aluminium 19 mL cans (C128, Presspart, Blackburn, UK), to which an appropriate amount of ethanol was added to aid solubility of the drug on addition of the propellant. The slurry of the drug in ethanol was then sonicated for 60 minutes in order to disperse the drug in the ethanol. The cans were then crimped with a 50 μL valve (Bespak, Kings Lynn, UK) following which R-152a or R-134a as appropriate was filled into the cans through the valve using a manual Pamasol crimper/filler (Pamasol, Switzerland). […] Finally, all the cans were quarantined for 14 days, valve down, at 22° C./44% RH before commencing testing of the final formulations.

[2] = Solubility of drug in liquefied propellant (pressure solubility apparatus, HPLC); type: physicochemical; conditions: stored at 20° C. for 24 hours, n=3
Method: An excess of active pharmaceutical ingredient was placed into a pressure cylinder (300 cm^3 stainless steel cylinder from Whitey, Inc.). A vacuum was applied to the cylinder, which was then chilled using liquid nitrogen. Approximately 80 grams of either R-152a or R-134a propellant was charged into the cylinder, which was then stored at 20° C. for 24 hours.
A filtration unit comprising a 15 μm filter in-line with a 5 μm filter was connected to the cylinder containing the excess of drug in propellant. A second receiver pressure cylinder (150 cm^3 stainless steel cylinder from Whitey, Inc.) was exposed to a vacuum and chilled using liquid nitrogen, which was then connected to the filtration unit. Approximately 30 grams of liquid propellant containing drug in excess was passed through the filtration unit and collected in the receiver pressure cylinder.
A modified piece of 3.2 mm (⅛″) tubing was connected to the end of the receiver pressure cylinder, which was then attached to the stem of a continuous valve crimped on to a glass bottle. The 3.2 mm (⅛″) tubing was used to depress the stem of the valve and therefore, enable the contents of the receiver pressure cylinder to be collected in the glass bottle. […] The glass bottle was re-weighed and the mass of drug collected in the DUSA was determined by high performance liquid chromatography (HPLC). […]

Row | Structure (SMILES) | ethanol required to dissolve the drug ([1]; R-134a/ethanol mixture) | ethanol required to dissolve the drug ([1]; R-152a/ethanol mixture) | Ethanol Content in R-134a [1] | Ethanol Content in R-152a [1] | mean drug solubility (± S.D.) ([2]; propellant comprising 100% R-134a) | mean drug solubility (± S.D.) ([2]; propellant comprising 100% R-152a)
1 | CCC(=O)OCC(=O)[C@@]1(OC(=O)CC)[C@@H](C)C[C@H]2[C@@H]3CCC4=CC(=O)C=C[C@]4(C)[C@@]3(Cl)[C@@H](O)C[C@@]21C [beclomethasone dipropionate] | 4.0 % w/w | 2.0 % w/w | 4.0 % w/w | 2.0 % w/w | – | –
2 | CCC(=O)O[C@]1(C(=O)SCF)[C@H](C)C[C@H]2[C@@H]3C[C@H](F)C4=CC(=O)C=C[C@]4(C)[C@@]3(F)[C@@H](O)C[C@@]21C [fluticasone propionate] | 13.0 % w/w | 5.0 % w/w | 13.0 % w/w | 5.0 % w/w | 14.27 ± 1.66 µg/g | 73.55 ± 3.98 µg/g
